The record followed here is patent US7893055B2, “HIV integrase inhibitors” (priority 2006, dated 2011).

In the assay the target is T1, HIV-integrase (Human immunodeficiency virus type 1 group M subtype B, UniProt P12497).
T1 construct: Recombinant integrase (0.26 ng) was incubated with the beads
The experiment in a line: HIV-Integrase Inhibition Activity (SPA strand transfer assay). Type of assay: biochemical. The conditions noted are these: recombinant integrase, SPA beads, P33 labeled target DNA; read-out: Activity (IC50 class, HIV-integrase inhibition). The method, then:
HIV-Integrase InhibitionActivity. To evaluate in-vitro activity against HIV-integrase, 5 pmole of biotin labeled substrate DNA was bound to 100 μg of Streptavidin coated PVT SPA beads (Amersham Pharmacia Biotech). Recombinant integrase (0.26 ng) was incubated with the beads for 90 min at 37° C. Unbound enzyme was removed by washing the complex followed by addition of inhibitors and 0.1 fmol of P33 labeled target DNA. The reaction was stopped by adding EDTA to a final concentration of 10 mM. Samples were counted in TopCountNXT (Packard) and the CPM was used as a measure of integration. The reaction condition was as described in A. Engelman and R. Craigie, J. Virol. 69, 5908-5911 (1995). The sequences of substrate and target DNA were described in Nucleic Acid Research 22, 1121-1122 (1994). Activity equal to A refers to a compound having IC50=0.002 to 0.10 μM while B and C denote compounds having IC50=0.1 to 1.0 μM and IC50≧1.0 μM respectively.
For “Pyrimido[2,1-c][1,4]oxazine-2- carboxamide, N-[(1-ethyl-1H- pyrazol-5-yl)methyl]-4,6,7,9- tetrahydro-3-hydroxy-9,9- dimethyl-4-oxo- [Example 68]”, the IC50 was at least 1000 nM.

`CSc1ccc(CNC(=O)c2nc3n(c(=O)c2O)CCOC3(C)C)o1` [Example 87, 3-Hydroxy-9,9-dimethyl-N-((5-(methylthio)furan-2-yl)methyl)-4-oxo-4,6,7,9-tetrahydropyrimido[2,1-c][1,4]oxazine-2-carboxamide]: the IC50 was 2 to 100 nM.

On to `CC1(C)OCCn2c1nc(C(=O)NCc1cn3ccccc3n1)c(O)c2=O` [Example 15, Pyrimido[2,1-c][1,4]oxazine-2-carboxamide, 4,6,7,9-tetrahydro-3-hydroxy-N-(imidazo[1,2-a]pyridin-2-ylmethyl)-9,9-dimethyl-4-oxo-], for which the IC50 lay within 2 to 100 nM. Regarding `Cn1nc(CNC(=O)c2nc3n(c(=O)c2O)CCOC3(C)C)c2ccccc21` [Example 13, Pyrimido[2,1-c][1,4]oxazine-2-carboxamide, 4,6,7,9-tetrahydro-3-hydroxy-9,9-dimethyl-N-[(1-methyl-1H-indazol-3-yl)methyl]-4-oxo-], the IC50 lay within 2 to 100 nM. As for “Pyrimido[2,1-c][1,4]oxazine-2- carboxamide, N-[(4-chloro-3- methyl-5-isoxazolyl)methyl]- 4,6,7,9-tetrahydro-3-hydroxy-9,9- dimethyl-4-oxo- [Example 54]”, the IC50 lay within 100 to 1000 nM. Consider `Cc1cc(C#N)c(CNC(=O)c2nc3n(c(=O)c2O)CCOC3(C)C)s1` [Example 34, Pyrimido[2,1-c][1,4]oxazine-2-carboxamide, N-[(3-cyano-5-methyl-2-thienyl)methyl]-4,6,7,9-tetrahydro-3-hydroxy-9,9-dimethyl-4-oxo-], for which the IC50 is 2 to 100 nM.

Consider “Pyrimido[2,1-c][1,4]oxazine-2- carboxamide, N-[(4-bromo-1- ethyl-1H-pyrazol-5-yl)methyl]- 4,6,7,9-tetrahydro-3-hydroxy-9,9- dimethyl-4-oxo- [Example 73]”, for which the IC50 is at least 1000 nM. As for `Cc1cc(CNC(=O)c2nc3n(c(=O)c2O)CCOC3(C)C)nn1C(F)F` [Example 18, Pyrimido[2,1-c][1,4]oxazine-2-carboxamide, N-[[1-(difluoromethyl)-5-methyl-1H-pyrazol-3-yl]methyl]-4,6,7,9-tetrahydro-3-hydroxy-9,9-dimethyl-4-oxo-], the figure is 2 to 100 nM; as for `Cc1ccc(CNC(=O)c2nc3n(c(=O)c2O)CCCC32CCC2)s1` [Example 84, 3′Hhydroxy-N-((5-methyl-2-thienyl)methyl)-4′-oxo-7′,8′-dihydro-4′H,6′H-spiro[cyclobutane-1,9′-pyrido[1,2-a]pyrimidine]-2′-carboxamide], 2 to 100 nM. As for `CC1(C)OCCn2c1nc(C(=O)NCc1nc3ccccc3s1)c(O)c2=O` [Example 92, N-(1,3-Benzothiazol-2-ylmethyl)-3-hydroxy-9,9-dimethyl-4-oxo-4,6,7,9-tetrahydropyrimido[2,1-c][1,4]oxazine-2-carboxamide], the figure is 2 to 100 nM; as for `CC1(C)OCCn2c1nc(C(=O)NCc1csc(-c3ccccc3)n1)c(O)c2=O` [Example 3, Pyrimido[2,1-c][1,4]oxazine-2-carboxamide, 4,6,7,9-tetrahydro-3-hydroxy-9,9-dimethyl-4-oxo-N-[(2-phenyl-4-thiazolyl)methyl]-], 100 to 1000 nM; as for “Pyrimido[2,1-c][1,4]oxazine-2- carboxamide, 4,6,7,9-tetrahydro-3- hydroxy-N-[[3-(4-methoxyphenyl)- 5-isoxazolyl]methyl]-9,9-dimethyl- 4-oxo- [Example 48]”, at least 1000 nM. As for `Cc1cc(CNC(=O)c2nc3n(c(=O)c2O)CCOC3(C)C)nn1C(C)C` [Example 19, Pyrimido[2,1-c][1,4]oxazine-2-carboxamide, 4,6,7,9-tetrahydro-3-hydroxy-9,9-dimethyl-N-[[5-methyl-1-(1-methylethyl)-1H-pyrazol-3-yl]methyl]-4-oxo-], the figure is 2 to 100 nM. Turning to `CC1(C)OCCn2c1nc(C(=O)NCc1cnn(-c3ccccc3)c1)c(O)c2=O` [Example 6, Pyrimido[2,1-c][1,4]oxazine-2-carboxamide, 4,6,7,9-tetrahydro-3-hydroxy-9,9-dimethyl-4-oxo-N-[(1-phenyl-1H-pyrazol-4-yl)methyl]-], the IC50 is at least 1000 nM.

For `Cc1cc(C)n2nc(CNC(=O)c3nc4n(c(=O)c3O)CCOC4(C)C)nc2n1` [Example 21, Pyrimido[2,1-c][1,4]oxazine-2-carboxamide, N-[(5,7-dimethyl[1,2,4]triazolo[1,5-a]pyrimidin-2-yl)methyl]-4,6,7,9-tetrahydro-3-hydroxy-9,9-dimethyl-4-oxo-], the IC50 was at least 1000 nM. Consider “Pyrimido[2,1-c][1,4]oxazine-2- carboxamide, 4,6,7,9-tetrahydro-3- hydroxy-9,9-dimethyl-4-oxo-N- [(2,3,6,7-tetrahydro-1,3,7- trimethyl-2,6-dioxo-1H-purin-8- yl)methyl]- [Example 60]”, for which the IC50 was at least 1000 nM. As for `CC(=O)n1nc(CNC(=O)c2nc3n(c(=O)c2O)CCOC3(C)C)c2ccccc21` [Example 81, N-((1-Acetyl-1H-indazol-3-yl)methyl)-3-hydroxy-9,9-dimethyl-4-oxo-4,6,7,9-tetrahydropyrimido[2,1-c][1,4]oxazine-2-carboxamide], the IC50 lay in the range of 2 to 100 nM. For the compound “Pyrimido[2,1-c][1,4]oxazine-2- carboxamide, 4,6,7,9-tetrahydro-3- hydroxy-9,9-dimethyl-N-[(1- methyl-1H-pyrrol-2-yl)methyl]-4- oxo [Example 47]”, the IC50 was in the range of 100 to 1000 nM. The same measure for `Cc1ncsc1CNC(=O)c1nc2n(c(=O)c1O)CCOC2(C)C` [Example 23, Pyrimido[2,1-c][1,4]oxazine-2-carboxamide, 4,6,7,9-tetrahydro-3-hydroxy-9,9-dimethyl-N-[(4-methyl-5-thiazolyl)methyl]-4-oxo-]: at least 1000 nM; for “Pyrimido[2,1-c][1,4]oxazine-2- carboxamide, N-[(1-ethyl-3- methyl-1H-pyrazol-4-yl)methyl]- 4,6,7,9-tetrahydro-3-hydroxy-9,9- dimethyl-4-oxo- [Example 63]”: 100 to 1000 nM. The same measure for `Cn1c(CNC(=O)c2nc3n(c(=O)c2O)CCOC3(C)C)cc2ccccc21` [Example 11, Pyrimido[2,1-c][1,4]oxazine-2-carboxamide, 4,6,7,9-tetrahydro-3-hydroxy-9,9-dimethyl-N-[(1-methyl-1H-indol-2-yl)methyl]-4-oxo-]: 2 to 100 nM; for `Cc1cc(CNC(=O)c2nc3n(c(=O)c2O)CCOC3(C)C)nn1C(C)(C)C` [Example 10, Pyrimido[2,1-c][1,4]oxazine-2-carboxamide, N-[[1-(1,1-dimethylethyl)-5-methyl-1H-pyrazol-3-yl]methyl]-4,6,7,9-tetrahydro-3-hydroxy-9,9-dimethyl-4-oxo-]: 2 to 100 nM; for “Pyrimido[2,1-c][1,4]oxazine-2- carboxamide, N-[(5,6-dichloro- 1H-benzimidazol-2-yl)methyl]- 4,6,7,9-tetrahydro-3-hydroxy-9,9- dimethyl-4-oxo- [Example 50]”: at least 1000 nM. The same measure for “2-Thiopheneacetic acid, 5- [[[(4,6,7,9-tetrahydro-3-hydroxy- 9,9-dimethyl-4-oxopyrimido[2,1- c][1,4]oxazin-2- yl)carbonyl]amino]methy]- [Example 55]”: 100 to 1000 nM; for `Cc1ccc(CNC(=O)c2nc3n(c(=O)c2O)CCOC3(C)C)s1` [Example 29, Pyrimido[2,1-c][1,4]oxazine-2-carboxamide, 4,6,7,9-tetrahydro-3-hydroxy-9,9-dimethyl-N-[(5-methyl-2-thienyl)methyl]-4-oxo-]: 2 to 100 nM; for “Pyrimido[2,1-c][1,4]oxazine-2- carboxamide, N-[(4-chloro-1- ethyl-1H-pyrazol-5-yl)methyl]- 4,6,7,9-tetrahydro-3-hydroxy-9,9- dimethyl-4-oxo- [Example 71]”: 100 to 1000 nM. In the case of `Cn1cc(CN(Cc2cn(C)nn2)C(=O)c2nc3n(c(=O)c2O)CCOC3(C)C)nn1` [Example 26, Pyrimido[2,1-c][1,4]oxazine-2-carboxamide, 4,6,7,9-tetrahydro-3-hydroxy-9,9-dimethyl-N,N-bis[(1-methyl-1H-1,2,3-triazol-4-yl)methyl]-4-oxo-], the IC50 is at least 1000 nM.

Take `CNC(=O)n1nc(CNC(=O)c2nc3n(c(=O)c2O)CCOC3(C)C)c2ccccc21` [Example 80, 3-Hydroxy-9,9-dimethyl-N-((1-(methylcarbamoyl)-1H-indazol-3-yl)methyl)-4-oxo-4,6,7,9-tetrahydropyrimido[2,1-c][1,4]oxazine-2-carboxamide]: the IC50 is 2 to 100 nM. In the case of “Pyrimido[2,1-c][1,4]oxazine-2- carboxamide, N-[(5-chloro-1H- indol-2-yl)methyl]-4,6,7,9- tetrahydro-3-hydroxy-9,9- dimethyl-4-oxo- [Example 62]”, the IC50 was in the range of 100 to 1000 nM.

As for “Pyrimido[2,1-c][1,4]oxazine-2- carboxamide, 4,6,7,9-tetrahydro-3- hydroxy-N-[3-(5-methoxy-1H- indol-3-yl)propyl]-9,9-dimethyl-4- oxo- [Example 52]”, the IC50 is at least 1000 nM.
